Data published in US20080317723A1, “LYMPHATIC ENDOTHELIAL CELLS MATERIALS AND METHODS” (VEGENICS LIMITED, priority 2001, published 2008).
Entries after “also recorded” stand apart in the source; their conditions may differ.

What was measured:
p42/p44 MAPK = p42/p44 MAPK Thr202/Tyr204 phosphorylation in HMVE cells, Western blot; assay type: cell-based, human; settings: minimum growth factor concentrations giving maximal activation
Method: (§1) Western blot analysis. Endothelial cells were cultured on 35 mm dishes to near confluence, starved for 24 h in serum free medium and stimulated as indicated. Wortmannin ([…]), LY294002 ([…]), PD98059 (10-25 μM) or GF109203X (2.5-5 μM) were added 1-3 h before stimulation, where indicated. DMSO, into which the inhibitors were dissolved, was used as a control. After the stimulation, the cells were lysed in lysis buffer (50 mM HEPES, pH 7.5, 150 mM NaCl, 10 mM EDTA, 100 mM NaF, 1% TritonX-100 supplemented with 2 mM Na3VO4, 0.5 mM PMSF, 100 U/ml approtinin and 10 μg/ml leupeptin). Clarified lysates were separated by SDS-PAGE, transferred to nitrocellulose and immunoblotted using the phosphospecific antibodies for Akt-Ser473, Akt-Thr308, p42/44 MAPK-Thr202/Tyr204 or CREB-Ser133. The bound antibodies were detected using horseradish peroxidase conjugated secondary antibodies and enhanced chemiluminescence detection system. The blots were stripped and reprobed with antibodies against Akt, MAPK or CREB for quantification by reading the optical densities of the signals with Multi-Analyst 2.0.1 program (Bio-Rad).
(§2) The p42/p44 MAPK activation was detected by Western blotting using phospho-Thr202/Tyr204-MAPK specific antibodies and CREB phosphorylation using phospho-Ser133 specific antibodies. The growth factor concentrations used were: VEGF 10 ng/ml, VEGF-C 100 ng/ml and VEGF-C156S 500 ng/ml. […] Effects of inhibition of protein kinase C by GF109203X, MEK1 by PD98059 and PI-3 kinase by LY294002 on p42/p44 MAPK Thr202/Tyr204 phosphorylation, CREB Ser133 phosphorylation and Akt Ser473 phosphorylation in HMVE cells. The growth factor concentrations used were: VEGF 1 ng/ml, VEGF-C 10 ng/ml and VEGF-C156S 500 ng/ml

CREB = CREB Ser133 phosphorylation in HMVE cells, Western blot; assay type: cell-based, human; settings: HMVE cells
Method: as §1, §2

mVEGFR-2 = mVEGFR-2 (Mus musculus, UniProt P35918); settings: mVEGFR-2, monovalent; reference: Baldwin et al. 2001; cited from earlier work
Chain of mVEGFR-2 (P35918 20-1345): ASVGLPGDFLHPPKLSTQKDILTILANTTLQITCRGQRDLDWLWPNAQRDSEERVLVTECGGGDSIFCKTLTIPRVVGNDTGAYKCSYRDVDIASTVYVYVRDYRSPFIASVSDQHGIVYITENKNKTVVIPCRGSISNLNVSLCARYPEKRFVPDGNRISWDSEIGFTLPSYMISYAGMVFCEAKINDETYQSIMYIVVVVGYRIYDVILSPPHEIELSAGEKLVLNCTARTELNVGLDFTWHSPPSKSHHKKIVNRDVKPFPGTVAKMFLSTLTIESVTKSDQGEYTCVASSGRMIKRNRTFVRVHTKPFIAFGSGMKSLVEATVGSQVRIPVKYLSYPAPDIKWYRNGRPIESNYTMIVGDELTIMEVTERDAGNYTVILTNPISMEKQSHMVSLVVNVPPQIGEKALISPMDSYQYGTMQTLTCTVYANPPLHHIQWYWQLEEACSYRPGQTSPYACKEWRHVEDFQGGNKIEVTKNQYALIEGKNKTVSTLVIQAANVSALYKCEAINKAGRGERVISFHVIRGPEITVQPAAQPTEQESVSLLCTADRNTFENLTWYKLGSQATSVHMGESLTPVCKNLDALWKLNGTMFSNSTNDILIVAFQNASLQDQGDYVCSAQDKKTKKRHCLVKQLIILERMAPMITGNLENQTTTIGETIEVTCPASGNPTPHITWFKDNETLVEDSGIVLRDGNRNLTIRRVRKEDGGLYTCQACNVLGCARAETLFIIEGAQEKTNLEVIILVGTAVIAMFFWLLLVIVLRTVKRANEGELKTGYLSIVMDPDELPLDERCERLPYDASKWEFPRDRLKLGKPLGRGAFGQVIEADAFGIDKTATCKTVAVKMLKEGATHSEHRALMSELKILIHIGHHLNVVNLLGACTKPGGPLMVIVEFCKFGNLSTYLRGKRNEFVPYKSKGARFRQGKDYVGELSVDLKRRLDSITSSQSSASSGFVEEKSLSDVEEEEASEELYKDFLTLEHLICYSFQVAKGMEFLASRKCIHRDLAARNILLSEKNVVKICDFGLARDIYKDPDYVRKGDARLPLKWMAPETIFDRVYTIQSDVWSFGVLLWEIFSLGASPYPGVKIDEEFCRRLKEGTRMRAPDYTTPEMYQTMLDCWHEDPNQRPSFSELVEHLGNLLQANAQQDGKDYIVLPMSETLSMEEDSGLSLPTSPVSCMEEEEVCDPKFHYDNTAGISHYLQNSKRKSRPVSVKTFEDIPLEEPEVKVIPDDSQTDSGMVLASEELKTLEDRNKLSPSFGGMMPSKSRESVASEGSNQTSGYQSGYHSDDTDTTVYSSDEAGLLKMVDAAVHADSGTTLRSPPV

mVEGFR-3 = mVEGFR-3 (Mus musculus, UniProt P35917); settings: reference: Baldwin et al. 2001; cited from earlier work
Chain of mVEGFR-3 (P35917 25-1363): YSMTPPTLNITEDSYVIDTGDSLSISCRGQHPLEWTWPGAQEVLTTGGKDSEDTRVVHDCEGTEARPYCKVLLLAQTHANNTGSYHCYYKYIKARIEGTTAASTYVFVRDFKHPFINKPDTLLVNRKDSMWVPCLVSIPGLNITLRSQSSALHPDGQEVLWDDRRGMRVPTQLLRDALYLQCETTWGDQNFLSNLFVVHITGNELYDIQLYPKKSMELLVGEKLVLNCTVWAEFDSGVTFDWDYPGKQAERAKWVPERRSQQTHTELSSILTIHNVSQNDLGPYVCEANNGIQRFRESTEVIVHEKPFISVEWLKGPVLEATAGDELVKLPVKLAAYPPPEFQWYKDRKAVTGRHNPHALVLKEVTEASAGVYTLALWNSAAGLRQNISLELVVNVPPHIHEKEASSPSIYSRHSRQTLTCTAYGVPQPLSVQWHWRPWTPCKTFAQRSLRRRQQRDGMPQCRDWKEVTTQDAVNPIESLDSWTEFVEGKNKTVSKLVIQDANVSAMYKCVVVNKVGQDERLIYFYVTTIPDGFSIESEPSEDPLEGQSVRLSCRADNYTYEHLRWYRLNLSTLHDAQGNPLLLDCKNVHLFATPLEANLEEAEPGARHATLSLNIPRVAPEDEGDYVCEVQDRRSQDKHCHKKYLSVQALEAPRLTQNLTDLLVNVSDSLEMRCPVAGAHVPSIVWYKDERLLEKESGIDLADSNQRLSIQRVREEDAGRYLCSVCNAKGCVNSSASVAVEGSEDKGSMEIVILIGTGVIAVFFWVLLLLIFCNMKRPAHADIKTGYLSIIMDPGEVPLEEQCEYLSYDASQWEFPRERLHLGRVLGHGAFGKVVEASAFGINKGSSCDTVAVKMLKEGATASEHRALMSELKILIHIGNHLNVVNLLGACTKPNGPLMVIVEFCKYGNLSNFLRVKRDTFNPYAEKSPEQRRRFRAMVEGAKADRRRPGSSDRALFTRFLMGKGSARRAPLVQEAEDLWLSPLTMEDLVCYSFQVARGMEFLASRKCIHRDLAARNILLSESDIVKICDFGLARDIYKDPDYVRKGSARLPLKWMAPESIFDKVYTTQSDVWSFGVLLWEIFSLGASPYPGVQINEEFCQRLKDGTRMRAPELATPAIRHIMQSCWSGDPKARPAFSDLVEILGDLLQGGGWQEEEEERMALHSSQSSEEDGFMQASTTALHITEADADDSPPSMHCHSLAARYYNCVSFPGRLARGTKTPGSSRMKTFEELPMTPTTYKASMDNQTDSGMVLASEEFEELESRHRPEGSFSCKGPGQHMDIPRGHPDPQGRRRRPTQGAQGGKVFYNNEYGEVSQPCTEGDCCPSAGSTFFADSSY

Row | Molecule | effect on p42/44 MAPK phosphorylation induced by VEGF, VEGF-C or VEGF-C156S (p42/p44 MAPK) | effect of inhibitor on VEGF induced CREB phosphorylation (CREB) | effect of inhibitor on VEGF-C induced CREB phosphorylation (CREB) | KD (mVEGFR-2) | Ka (mVEGFR-2) | Kd (mVEGFR-2) | Ka (mVEGFR-3) [M⁻¹ s⁻¹]
1 | CN(C)CCCn1cc(C2=C(c3c[nH]c4ccccc34)C(=O)NC2=O)c2ccccc21 [GF109203X, Bisindolylmaleimide I] | completely blocked | completely blocked | completely blocked | – | – | – | –
2 | COc1cccc(-c2cc(=O)c3ccccc3o2)c1N [PD98059] | – | but not VEGF induced CREB phosphorylation; also recorded: did not inhibit VEGF induced CREB phosphorylation | inhibited VEGFC; also recorded: decreased phosphorylation of CREB upon VEGFC stimulation | – | – | – | –
3 | N#CC(=C(/N)Sc1ccccc1N)/C(C#N)=C(\N)Sc1ccccc1N [U0126] | – | but not VEGF induced CREB phosphorylation | inhibited VEGFC | – | – | – | –
4 | mVEGF-D: mature form of mouse VEGF-D, data from Baldwin et al. 2001 (protein, UniProt P97946 94-210, looked up) Vascular endothelial growth …: FAATFYDTETLKVIDEEWQRTQCSPRETCVEVASELGKTTNTFFKPPCVNVFRCGGCCNEEGVMCMNTSTSYISKQLFEISVPLTSVPELVPVKIANHTGCKCLPTGPRHPYSIIRR | – | – | – | no binding | no binding | no binding | 8000
